In patent publication US6355799B1, “Substituted benzene compounds, process for their preparation, and herbicidal and defoliant compositions containing them” (ISK Americas Incorporated, priority 1997, dated 2002):

Legend:
Type in all cases: in vivo
[1] = tested on: lambsquarters (Chenopodium album, CHEAL); assay: Pre-emerge test, greenhouse herbicide activity screening; details: for Pre-emerge Herbicidal Activity CHEAL: phytotoxicity rating 0-100, 14 days after application; for Pre-emerge Herbicidal Activity, phytotoxicity rating (0-100), CHEAL: rated 14 days after application, 0 = no damage, 100 = complete death
Outline: (§1)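 Compounds in acetone were track-sprayed at 15–1000 g ai/ha: pre-emergence onto soil sown the previous day, then top-watered to incorporate and later bottom-watered; post-emergence onto 2–3 leaf plants with 0.25% v/v surfactant, bottom-watered only. Ratings on a 0–100 phytotoxicity scale were taken at day 14.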

[2] = tested on: johnsongrass (Sorghum halepense, SORHA); assay: as above; details: for Pre-emerge Herbicidal Activity SORHA: phytotoxicity rating 0-100, 14 days after application; for Pre-emerge Herbicidal Activity, phytotoxicity rating (0-100), SORHA: rated 14 days after application, 0 = no damage, 100 = complete death
Outline: as §1

[3] = tested on: ivyleaf morningglory (Ipomoea hederacea, IPOHE); assay: as above; details: for Pre-emerge Herbicidal Activity IPOHE: phytotoxicity rating 0-100, 14 days after application; for Pre-emerge Herbicidal Activity, phytotoxicity rating (0-100), IPOHE: rated 14 days after application, 0 = no damage, 100 = complete death
Outline: as §1

[4] = tested on: large crabgrass (Digitaria sanguinalis, DIGSA); assay: as above; details: for Pre-emerge Herbicidal Activity DIGSA: phytotoxicity rating 0-100, 14 days after application; for Pre-emerge Herbicidal Activity, phytotoxicity rating (0-100), DIGSA: rated 14 days after application, 0 = no damage, 100 = complete death
Outline: as §1

[5] = tested on: velvetleaf (Abutilon theophrasti, ABUTH); assay: as above; details: for Pre-emerge Herbicidal Activity ABUTH: phytotoxicity rating 0-100, 14 days after application; for Pre-emerge Herbicidal Activity, phytotoxicity rating (0-100), ABUTH: rated 14 days after application, 0 = no damage, 100 = complete death
Outline: as §1

[6] = tested on: barnyardgrass (Echinochloa crus-galli, ECHCG); assay: as above; details: for Pre-emerge Herbicidal Activity ECHCG: phytotoxicity rating 0-100, 14 days after application; for Pre-emerge Herbicidal Activity, phytotoxicity rating (0-100), ECHCG: rated 14 days after application, 0 = no damage, 100 = complete death
Outline: as §1

[7] = tested on: sicklepod (Cassia obtusifolia, CASOB); assay: as above; details: for Pre-emerge Herbicidal Activity CASOB: phytotoxicity rating 0-100, 14 days after application; for Pre-emerge Herbicidal Activity, phytotoxicity rating (0-100), CASOB: rated 14 days after application, 0 = no damage, 100 = complete death
Outline: as §1

[8] = tested on: green foxtail (Setaria viridis, SETVI); assay: as above; details: for Pre-emerge Herbicidal Activity SETVI: phytotoxicity rating 0-100, 14 days after application; for Pre-emerge Herbicidal Activity, phytotoxicity rating (0-100), SETVI: rated 14 days after application, 0 = no damage, 100 = complete death
Outline: as §1

[9] = tested on: field corn (Zea mays L., var. Dekalb 535, CORN); assay: Pre-emerge test, crop safety; details: for Pre-emerge Herbicidal Activity CORN: crop damage rating 0-100, 14 days after application; for Pre-emerge phytotoxicity rating (0-100), crop damage, CORN: rated 14 days after application, 0 = no damage, 100 = complete death
Outline: (§2)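 Applied at 15–1000 g ai/ha from acetone in 187 l/ha spray volume. Post-emergence applications included 0.25% v/v non-ionic surfactant and reached plants sown 8–21 days before. Pre-emergence applications were incorporated by surface watering. Efficacy or crop damage was rated on a 0–100 scale after 14 days.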

[10] = tested on: upland rice (Oryza sp., var. Tebonnet, RICE); assay: Pre-emerge test, crop safety; details: for Pre-emerge Herbicidal Activity RICE: crop damage rating 0-100, 14 days after application; for Pre-emerge phytotoxicity rating (0-100), crop damage, RICE: rated 14 days after application, 0 = no damage, 100 = complete death
Outline: as §2

[11] = tested on: redroot pigweed (Amaranthus retroflexus, AMARE); assay: Pre-emerge test, greenhouse herbicide activity screening; details: for Pre-emerge Herbicidal Activity AMARE: phytotoxicity rating 0-100, 14 days after application; for Pre-emerge Herbicidal Activity, phytotoxicity rating (0-100), AMARE: rated 14 days after application, 0 = no damage, 100 = complete death
Outline: (§3)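 Rating: 0–100 visual injury, 14 DAA. Application: acetone, 187 l/ha, 15–1000 g ai/ha, flat-fan track sprayer with nozzle 40–45 cm above soil or canopy. Post-emerge runs used 0.25% v/v surfactant on 2–3 leaf plants.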

[12] = tested on: field corn (Zea mays L., var. Dekalb 535, CORN); assay: Post-emerge test, crop safety; details: post-emerge, 14 days after application, rating scale 0-100
Outline: as §3

[13] = tested on: upland rice (Oryza sp., var. Tebonnet, RICE); assay: Post-emerge test, crop safety; details: post-emerge, 14 days after application, rating scale 0-100
Outline: as §3

[14] = tested on: johnsongrass (Sorghum halepense, SORHA); assay: Post-emerge test, greenhouse herbicide activity screening; details: post-emerge, 14 days after application, rating scale 0-100
Outline: (§4)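 Plants grown in 10 cm pots of sandy loam mix received acetone-dissolved compounds through a moving flat-fan nozzle. Doses ranged from 15 to 1000 g ai/ha. Pre-emerge pots were seeded one day earlier, post-emerge pots 8–21 days earlier. Fourteen days on, each pot was graded 0–100 for damage.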

[15] = tested on: redroot pigweed (Amaranthus retroflexus, AMARE); assay: as above; details: post-emerge, 14 days after application
Outline: as §4

[16] = tested on: ivyleaf morningglory (Ipomoea hederacea, IPOHE); assay: as above; details: post-emerge, 14 days after application, rating scale 0-100
Outline: as §4

[17] = tested on: large crabgrass (Digitaria sanguinalis, DIGSA); assay: as above; details: post-emerge, 14 days after application, rating scale 0-100
Outline: as §4

[18] = tested on: velvetleaf (Abutilon theophrasti, ABUTH); assay: as above; details: post-emerge, 14 days after application, rating scale 0-100
Outline: as §4

[19] = tested on: barnyardgrass (Echinochloa crus-galli, ECHCG); assay: as above; details: post-emerge, 14 days after application, rating scale 0-100
Outline: as §4

[20] = tested on: sicklepod (Cassia obtusifolia, CASOB); assay: as above; details: post-emerge, 14 days after application, rating scale 0-100
Outline: as §4

[21] = tested on: green foxtail (Setaria viridis, SETVI); assay: as above; details: post-emerge, 14 days after application, rating scale 0-100
Outline: as §4

[22] = 250 g ai/ha, rating scale 0-100

## CCOC(=O)C(C)Oc1c(Cl)cc(F)c(-n2c(=O)cc(C(F)(F)F)n(C)c2=O)c1NC(=O)c1ccc2ccccc2c1 (stereo not drawn) [2-191]
[1]; 63 g ai/ha
  Pre-emerge Herbicidal Activity CHEAL: 100
[1]; 250 g ai/ha
  Pre-emerge Herbicidal Activity CHEAL: 100
[2]; 63 g ai/ha
  Pre-emerge Herbicidal Activity SORHA: 0
[2]; 250 g ai/ha
  Pre-emerge Herbicidal Activity SORHA: 50
[3]; 63 g ai/ha
  Pre-emerge Herbicidal Activity IPOHE: 10
[3]; 250 g ai/ha
  Pre-emerge Herbicidal Activity IPOHE: 40
[4]; 63 g ai/ha
  Pre-emerge Herbicidal Activity DIGSA: 0
[4]; 250 g ai/ha
  Pre-emerge Herbicidal Activity DIGSA: 70
[5]; 63 g ai/ha
  Pre-emerge Herbicidal Activity ABUTH: 80
[5]; 250 g ai/ha
  Pre-emerge Herbicidal Activity ABUTH: 100
[6]; 63 g ai/ha
  Pre-emerge Herbicidal Activity ECHCG: 0
[6]; 250 g ai/ha
  Pre-emerge Herbicidal Activity ECHCG: 10
[7]; 63 g ai/ha
  Pre-emerge Herbicidal Activity CASOB: 10
[7]; 250 g ai/ha
  Pre-emerge Herbicidal Activity CASOB: 30
[8]; 63 g ai/ha
  Pre-emerge Herbicidal Activity SETVI: 40
[8]; 250 g ai/ha
  Pre-emerge Herbicidal Activity SETVI: 80
[9]; 63 g ai/ha
  Pre-emerge Herbicidal Activity CORN: 0
[9]; 250 g ai/ha
  Pre-emerge Herbicidal Activity CORN: 0
[10]; 63 g ai/ha
  Pre-emerge Herbicidal Activity RICE: 10
[10]; 250 g ai/ha
  Pre-emerge Herbicidal Activity RICE: 20
[11]; 63 g ai/ha
  Pre-emerge Herbicidal Activity AMARE: 100
[11]; 250 g ai/ha
  Pre-emerge Herbicidal Activity AMARE: 100
[12]; 63 g ai/ha
  phytotoxicity rating CORN (crop damage): 10
[12]; 250 g ai/ha
  phytotoxicity rating CORN (crop damage): 20
[13]; 63 g ai/ha
  phytotoxicity rating RICE (crop damage): 10
[13]; 250 g ai/ha
  phytotoxicity rating RICE (crop damage): 20
[14]; 63 g ai/ha
  phytotoxicity rating SORHA: 0
[14]; 250 g ai/ha
  phytotoxicity rating SORHA: 0
[15]; 63 g ai/ha, rating scale 0-100 (0 no damage, 100 complete death)
  phytotoxicity rating AMARE: 40
[15]; [22]
  phytotoxicity rating AMARE: 90
[16]; 63 g ai/ha
  phytotoxicity rating IPOHE: 80
[16]; 250 g ai/ha
  phytotoxicity rating IPOHE: 100
[17]; 63 g ai/ha
  phytotoxicity rating DIGSA: 0
[17]; 250 g ai/ha
  phytotoxicity rating DIGSA: 0
[18]; 63 g ai/ha
  phytotoxicity rating ABUTH: 70
[18]; 250 g ai/ha
  phytotoxicity rating ABUTH: 90
[19]; 63 g ai/ha
  phytotoxicity rating ECHCG: 0
[19]; 250 g ai/ha
  phytotoxicity rating ECHCG: 0
[20]; 63 g ai/ha
  phytotoxicity rating CASOB: 30
[20]; 250 g ai/ha
  phytotoxicity rating CASOB: 80
[21]; 63 g ai/ha
  phytotoxicity rating SETVI: 0
[21]; 250 g ai/ha
  phytotoxicity rating SETVI: 10

## CCOC(=O)C(=O)Nc1c(OC)c(Cl)cc(F)c1-n1c(=O)cc(C(F)(F)F)n(C)c1=O [2-118]
[1]; 63 g ai/ha
  Pre-emerge Herbicidal Activity, phytotoxicity rating (0-100), CHEAL: 90
[1]; 250 g ai/ha
  Pre-emerge Herbicidal Activity, phytotoxicity rating (0-100), CHEAL: 100
[2]; 63 g ai/ha
  Pre-emerge Herbicidal Activity, phytotoxicity rating (0-100), SORHA: 0
[2]; 250 g ai/ha
  Pre-emerge Herbicidal Activity, phytotoxicity rating (0-100), SORHA: 0
[3]; 63 g ai/ha
  Pre-emerge Herbicidal Activity, phytotoxicity rating (0-100), IPOHE: 10
[3]; 250 g ai/ha
  Pre-emerge Herbicidal Activity, phytotoxicity rating (0-100), IPOHE: 80
[4]; 63 g ai/ha
  Pre-emerge Herbicidal Activity, phytotoxicity rating (0-100), DIGSA: 0
[4]; 250 g ai/ha
  Pre-emerge Herbicidal Activity, phytotoxicity rating (0-100), DIGSA: 20
[5]; 63 g ai/ha
  Pre-emerge Herbicidal Activity, phytotoxicity rating (0-100), ABUTH: 90
[5]; 250 g ai/ha
  Pre-emerge Herbicidal Activity, phytotoxicity rating (0-100), ABUTH: 100
[6]; 63 g ai/ha
  Pre-emerge Herbicidal Activity, phytotoxicity rating (0-100), ECHCG: 0
[6]; 250 g ai/ha
  Pre-emerge Herbicidal Activity, phytotoxicity rating (0-100), ECHCG: 0
[7]; 63 g ai/ha
  Pre-emerge Herbicidal Activity, phytotoxicity rating (0-100), CASOB: 90
[7]; 250 g ai/ha
  Pre-emerge Herbicidal Activity, phytotoxicity rating (0-100), CASOB: 40
[8]; 63 g ai/ha
  Pre-emerge Herbicidal Activity, phytotoxicity rating (0-100), SETVI: 0
[8]; 250 g ai/ha
  Pre-emerge Herbicidal Activity, phytotoxicity rating (0-100), SETVI: 50
[9]; 63 g ai/ha
  Pre-emerge phytotoxicity rating (0-100), crop damage, CORN: 0
[9]; 250 g ai/ha
  Pre-emerge phytotoxicity rating (0-100), crop damage, CORN: 10
[10]; 63 g ai/ha
  Pre-emerge phytotoxicity rating (0-100), crop damage, RICE: 0
[10]; 250 g ai/ha
  Pre-emerge phytotoxicity rating (0-100), crop damage, RICE: 30
[11]; 63 g ai/ha
  Pre-emerge Herbicidal Activity, phytotoxicity rating (0-100), AMARE: 40
[11]; 250 g ai/ha
  Pre-emerge Herbicidal Activity, phytotoxicity rating (0-100), AMARE: 100
[12]; 63 g ai/ha
  phytotoxicity rating CORN: 10
[12]; 250 g ai/ha
  phytotoxicity rating CORN: 20
[13]; 63 g ai/ha
  phytotoxicity rating RICE: 10
[13]; 250 g ai/ha
  phytotoxicity rating RICE: 10
[14]; 63 g ai/ha
  phytotoxicity rating SORHA: 0
[14]; 250 g ai/ha
  phytotoxicity rating SORHA: 0
[15]; 63 g ai/ha, rating scale 0-100
  phytotoxicity rating AMARE: 30
[15]; [22]
  phytotoxicity rating AMARE: 30
[16]; 63 g ai/ha
  phytotoxicity rating IPOHE: 50
[16]; 250 g ai/ha
  phytotoxicity rating IPOHE: 90
[17]; 63 g ai/ha
  phytotoxicity rating DIGSA: 0
[17]; 250 g ai/ha
  phytotoxicity rating DIGSA: 0
[18]; 63 g ai/ha
  phytotoxicity rating ABUTH: 60
[18]; 250 g ai/ha
  phytotoxicity rating ABUTH: 80
[19]; 63 g ai/ha
  phytotoxicity rating ECHCG: 0
[19]; 250 g ai/ha
  phytotoxicity rating ECHCG: 0
[20]; 63 g ai/ha
  phytotoxicity rating CASOB: 0
[20]; 250 g ai/ha
  phytotoxicity rating CASOB: 30
[21]; 63 g ai/ha
  phytotoxicity rating SETVI: 0
[21]; 250 g ai/ha
  phytotoxicity rating SETVI: 0
